Measured values: ChEMBL document CHEMBL3507680, “University of Dundee, Gates Library screen for HepG2 cell viability”

assay: Human HepG2 cell viability assay in 384 well format; format: toxicity, cell-based; design: dose 125 nL, time 70.5 hour; concentration not given beside the values; conditions: HepG2 cells, read-out: Inhibition

Structure (SMILES)	cytotoxicity at 70.5 h
CN(C)CCC1CCCCN1Cc1cnc(-c2ccccn2)nc1 (stereo not given)	-3.63%
Cc1cc(NCc2cc3n(n2)CCCN(C(=O)N(C)C)C3)ncn1	-12.5%
Cc1cc(S(=O)(=O)Nc2cccc(-n3cccc3)c2)sc1C(=O)O	-13%
Cc1noc(Cl)c1CCC(=O)N1CCCCC1Cn1cccn1 (stereo not given)	1.4%
OCCO[C@H]1C[C@@H](O)C12CCN(Cc1nc(C(F)(F)F)no1)CC2	-8.19%
CC(C)c1ncc(Cl)c(C(=O)N2CCCN3CCCC3C2)n1 (stereo not given)	-0.691%
CC(C)C(=O)Nc1cccc(CNC(=O)CSCc2ccccn2)c1	-11.7%
CCn1cc(C#N)c(=O)c2cc(Br)ccc21	-13.9%
Cn1cc(CN2CC[C@H]3O[C@H](C(=O)Nc4cnccn4)CC[C@H]32)cn1	29.6%
CC(=O)N1CCCN(C(C(=O)O)c2cccc(C)c2C)CC1 (stereo not given)	-12.3%
CCOC(=O)Cn1cnc2nc3n(c2c1=O)CCC3	-2.23%
O=C1NCCN1C1CCN(CCOc2cccc3ccccc23)CC1	0.611%
CSc1ccc(C(C(=O)O)N2CCOCC2)cc1 (stereo not given)	-11.2%
CN1CC2(CCN(CCOCCO)CC2)CC(c2ccccc2)C1=O (stereo not given)	29.9%
CN1CCC(O)(CNC(=O)c2cc(COc3cccc(F)c3)[nH]n2)CC1	-6.87%
CN(Cc1ccccc1)c1ncccc1CNC1CCC1	-2.38%
Cc1nc(C(C)C)sc1C(=O)N1CCN(C2CCSCC2)CC1	9.03%
CC(CNC(=O)CCn1cncn1)N1CCc2ccccc21 (stereo not given)	-1.72%
Cc1nc2c(c(Nc3ccccn3)n1)CN(S(C)(=O)=O)CC2	23.4%
O=C(Nc1cc(F)ccc1OCC1CCCO1)N1CCSCC1 (stereo not given)	0.0557%
Nc1ccnc(C(=O)N2CCCC3(CCC(=O)N(C4CCCC4)C3)C2)c1 (stereo not given)	-7.4%
N#Cc1cccc(OCCCN2CCN(C(=O)c3ccoc3)CC2)c1	-10%
c1ccc(C2CCCN2Cc2nnnn2C2CC2)cc1 (stereo not given)	-2.74%

Structure (SMILES)	cytotoxicity at 70.5 h
Cn1c(C2CC2)nc2c1CCN(CC(=O)NC1CCCCNC1=O)C2 (stereo not given)	-7.85%
Cc1cc(CN(C)C(=O)NC2CCN(c3ncccn3)CC2)no1	-0.403%
CN1CC(=O)N(c2ccccc2)CC12CCN(Cc1nccs1)C2 (stereo not given)	3.9%
CN(c1ccncn1)C1CC2(CCN(C(=O)c3cccs3)C2)C1 (stereo not given)	-16.4%
O=C1CCC2(CCCN(c3ncc(F)cn3)CC2)N1CC1CC1 (stereo not given)	-1.42%
CCc1ccccc1OCC(=O)N1CCOCC1c1ncon1 (stereo not given)	28.4%
CN(C)Cc1nnc2n1CCN(Cc1cccnc1)C2	-2.36%
CCCc1ccc(OCCNCc2ccco2)c(OC)c1	-1.62%
CCN(C(=O)Cn1cc(NC(=O)C(C)(C)C)cn1)c1ccccc1	-0.681%
Cc1nnc(C2Cc3ccccc3CN2Cc2ncc(Cl)n2C)o1 (stereo not given)	-13.3%
O=C(CN1CCC(c2ccnn2CCO)CC1)NCc1ccco1	11.2%
Cc1n[nH]c(C)c1CNCC(O)c1cccc(Cl)c1 (stereo not given)	-13.1%
CC(C)Cc1cc(C(=O)NCCc2ccc(S(C)(=O)=O)cc2)[nH]n1	-7.03%
Cc1noc(C)c1CN(C)CC1CCCN1c1cccnn1 (stereo not given)	-7.19%
Cc1ccc(CN(C)C(=O)C(C)n2cncn2)o1 (stereo not given)	-4.1%
Cc1noc(C)c1CN1CCC2(CC1)NC(=O)CC2c1ccncc1 (stereo not given)	-9.41%
CC(C)CNC(=O)CSc1nnc(OC(C)C)s1	-10.7%
CCN(CC)Cc1cnc2n1CCN(C1CCOC1)CC2 (stereo not given)	-1.04%
Cc1ccc(C)c(CN2CCCn3nc(CNS(C)(=O)=O)cc3C2)c1	15.4%
Cc1ccn2c(F)c(C(=O)N3CCC4(CCC(=O)N(C)C4)CC3)nc2c1	-10.1%
COCCNC(=O)C1CCCN1S(=O)(=O)c1sc(=O)[nH]c1C (stereo not given)	-6.44%
Cc1nc(CCN)cc(N2CCCN(C(=O)c3ccco3)CC2)n1	-4.43%
Cc1ccc(OCCCNC(=O)NC(C)c2nncn2C)cc1 (stereo not given)	-3.66%

Structure (SMILES)	cytotoxicity at 70.5 h
O=C(c1ccc(OCC2CC2)nc1)N1CCCC(n2ccnc2)C1 (stereo not given)	-14.6%
Cc1ccc2c(c1)C(=O)NCC1(CCN(C(=O)c3scnc3C)CC1)O2	-6.59%
CN(C(=O)C1(C#N)CCCCC1)c1nccs1	-0.486%
O=C(C1CC=CC1)N1C[C@@H]2[C@@H](C1)OCC(=O)N2Cc1cccnc1	0.567%
O=C1NC[C@]2(CC[C@@H](C(=O)N3CCCC(O)C3)CC2)Oc2ccccc21 (stereo not given in full)	-7.1%
NC(=O)c1ccc(S(=O)(=O)NCCc2ccccn2)cc1	1.11%
CC(C)(C)c1cc(CN2C[C@H]3CC[C@@H]2CN(Cc2cscn2)C3)n[nH]1	13.7%
Cn1ccnc1C1CCCN(C(=O)c2ccncc2F)C1 (stereo not given)	-5.94%
NC(=O)NC(=O)Cn1ccc2sccc2c1=O	-5.03%
CC(C)[C@H]1COC(=O)N1Cc1nnc(-c2ccccc2)o1	-1.91%
CC(C)n1cc(N2CC(C(=O)N3CCc4ccccc4C3)CC2=O)cn1 (stereo not given)	26.3%
Cc1nnc(N2CC[C@@]3(O)CCNC[C@H]3C2)c2ccccc12	-12.3%
CN(C)c1ccc(C(=O)N2CCCC2c2cnn(C)c2)nn1 (stereo not given)	-11.7%
CN1CCc2[nH]cnc2C12CCN(Cc1ccc3nsnc3c1)CC2	0.284%
O=C(CN1C(=O)CCC1=O)N1Cc2cncnc2C1	-2.85%
CC(C)n1ccnc1C1CCN(C(=O)C2COc3ccccc3O2)CC1 (stereo not given)	-9.98%
CCc1cc(N(C)Cc2noc(CC(C)C)n2)ncn1	21.2%
CC(C)Cc1cc(C(=O)NCC2CCCN(c3ccccn3)C2)on1 (stereo not given)	9.21%
CC(C)(C)OC(=O)N1CCCc2ccc(NCc3ccon3)cc21	-4.98%
CC(C)c1nc(CCN(C)c2nccc(N3CCCC(O)C3)n2)no1 (stereo not given)	-8.03%
Cc1cc(Nc2nc(C)cc(C)n2)cc(C2CCCN2)n1 (stereo not given)	-7.57%
O=C(c1ncoc1-c1ccco1)N(Cc1ccco1)CC1CCCO1 (stereo not given)	-3.69%
CCc1nc(Cn2c(=O)n(C)c3ccccc32)no1	-6.86%

Structure (SMILES)	cytotoxicity at 70.5 h
COc1ncccc1-c1cc(C(N)=O)ccn1	19.5%
O=C1c2cccnc2OC(CN2CCOCC2)CN1CC1CC1 (stereo not given)	-1.18%
COC(=O)N1CC(C)=C(C)CN1C(=O)Nc1cccc(Cl)c1	0.501%
c1ccc2sc(N3CCCC4(CCOC4)C3)nc2c1 (stereo not given)	-2.11%
Cc1nn(C)c(C)c1NC(=O)c1cccc(CN2CC[C@H](O)C2)c1	-0.546%
Cn1cc(CN2CCC3(CCCN(C(=O)c4cnccn4)C3)C2)cn1 (stereo not given)	-5.89%
CC(C)C(NC(=O)Cc1ccccc1)C(=O)NCc1ccc(O)nc1 (stereo not given)	-11.4%
CN1CCCC2(CC1)CCN(C(=O)CCc1ccccc1O)CC2	6.16%
CSCCNC(=O)c1ccc(OC2CCN(CC(C)(C)C)CC2)c(Cl)c1	-7.8%
CN1C(=O)C2(CCN(c3ncccc3C(=O)O)CC2)c2ccccc21	-8.18%
COc1ccc(SC(C)C(=O)N2CCC(NC(=O)C3CC3)CC2)cc1 (stereo not given)	8.09%
CC(=O)N1CCC(c2ccnc(Nc3ccc(C)cn3)n2)C1 (stereo not given)	16%
CC(C)c1ocnc1C(=O)NC1(c2cccc(F)c2)CCOCC1	-3.27%
CCOc1ccc(CN(C)C(=O)c2nc(N3CCCC3)ncc2Cl)cc1	-8.28%
Fc1cccc(Oc2nccnc2C2CCN(C3CCOCC3)CC2)c1	0.625%
COC[C@@]12CCO[C@@H]1CCN(C(=O)CCc1ccccc1Cl)C2	-3.89%
COc1ncccc1C(=O)N1CC[C@H]2C[C@H](c3noc(C)n3)O[C@@H]2C1	51.3%
CCc1c(C)sc2nc3n(CC(N)=O)nc(SC)n3c(=O)c12	5.38%
CN(C)C(=O)CN1CCC2(CCCN(Cc3cccnc3)C2)C1=O (stereo not given)	-12%
Cc1nc(CN2C(=O)COC3(CCN(Cc4nccs4)CC3)C2C)cs1 (stereo not given)	-6.92%
CCC(Nc1ncccn1)c1cccnc1 (stereo not given)	8.36%
Cn1cccc1C(=O)N1CCc2ncc(Cn3cccn3)n2CC1	16.9%
CC(N(C)Cc1nc2c(cnn2C)c(=O)[nH]1)C(C)(C)C (stereo not given)	21%

Structure (SMILES)	cytotoxicity at 70.5 h
Nc1nnc(Cn2nnc(-c3ccccc3F)n2)s1	-12.8%
O=C(Cc1ccc2c(c1)CCCC2)NCCNc1cnccn1	-11.7%
CC1(Cc2ccc(F)cc2)Cc2cc(C(=O)NCCO)ccc2O1 (stereo not given)	-0.493%
CC(C)c1nsc(N2CCOCC2)n1	-27.4%
CCN(Cc1c(C)nn(CC)c1C)S(=O)(=O)c1cnn(C)c1C	14.5%
O=C(c1ccc(N2CCOCC2)nc1)N1CCCC(n2cccn2)C1 (stereo not given)	-13.9%
COc1ccc(OC)c(CCNC(=O)CCC2CCCO2)c1 (stereo not given)	-10%
Cc1nc(CCNC(=O)NC(C)c2ccc3c(c2)OCCO3)cs1 (stereo not given)	-3.72%
Cc1cccc(-c2nnn3c2COC(CNS(=O)(=O)C2CC2)C3)c1 (stereo not given)	-9.41%
CN(Cc1ccc(-n2cncn2)cc1)Cc1ncc[nH]1	-0.834%
CN(C)S(=O)(=O)NCc1nc(-c2cccc(F)c2)c(-c2ccccn2)[nH]1	-0.435%
CCN1CCCC1CN(CCN(C)C)S(=O)(=O)c1ccc(C#N)cc1 (stereo not given)	2.57%
OC1(CN2CCCC2)CCCN(Cc2c[nH]c(CC3CCCC3)n2)C1 (stereo not given)	-4.13%
CCC(Nc1ccc(Oc2cccc(C#N)c2)cc1)C(N)=O (stereo not given)	-12.3%
O=C1CSC(c2ccsc2)c2sccc2N1 (stereo not given)	-18.3%
Oc1nnc(-c2cccs2)c2sc(N3CCCCC3)nc12	-1.82%
O=C(Cn1cccnc1=O)NC(Cc1cccs1)c1ccccn1 (stereo not given)	-13.9%
CC(C)(C)c1nc(CN2CCCC(Cn3cncn3)C2)cs1 (stereo not given)	25.2%
COC(=O)CNC(=O)C1(N(C)Cc2ccccc2)Cc2ccccc2C1	-8.63%
NC(=O)Cn1ccnc1C1CCCN(Cc2nc3ccccc3s2)C1 (stereo not given)	-7.02%
CCCNc1ncc(CN2CCC3(CC2)CNC(=O)C3)cn1	12.6%
CC(C)n1nc2c(cc1=O)CN(CC1CCCCO1)CC2 (stereo not given)	-5.1%
N#Cc1ccccc1C(=O)Nc1cccc(CN2CCC(CO)CC2)c1	-5.53%
